Reference: ChEMBL document CHEMBL4673215, “Discovery of DS42450411 as a potent orally active hepcidin production inhibitor: Design and optimization of novel 4-aminopyrimidine derivatives” (Bioorg Med Chem Lett, 2018)
pIC50: −log10 of the molar value. Calls of active or inactive are those of the source. The calls are words filed in the database; no cut-off is given here.

Legend:
[1] = Inhibition of BMP6-stimulated hepcidin production in human HepG2 cells
[2] = biological target: Dual specificity tyrosine-phosphorylation-regulated kinase 1A (Homo sapiens, UniProt Q13627); assay: Inhibition of DYRK1a (unknown origin)
[3] = biological target: Dual specificity tyrosine-phosphorylation-regulated kinase 1B (Homo sapiens) (UniProt Q9Y463); assay: Inhibition of DYRK1b (unknown origin) at 0.5 uM
[4] = biological target: Dual specificity protein kinase CLK2 (Homo sapiens) (UniProt P49760); assay: Inhibition of CLK2 (unknown origin) at 0.5 uM
Mus musculus = assay: Inhibition of IL6-induced hepcidin production in C57BL/6J mouse serum at 30 mg/kg, po administered 30 mins prior to IL6 challenge and measured after 4 hrs; type: functional, organism-based; conditions: time 270.0 min
[5] = AUC in C57BL/6J mouse at 30 mg/kg, po; type: ADME, organism-based; design: dose 30 mg/kg; conditions: in vivo
[6] = Clearance in C57BL/6J mouse at 30 mg/kg, po; type: ADME, organism-based; conditions: in vivo
[7] = Half life in C57BL/6J mouse at 30 mg/kg, po; type: ADME, organism-based; conditions: in vivo
[8] = Tmax in C57BL/6J mouse at 30 mg/kg, po; type: ADME, organism-based; conditions: in vivo
[9] = Protein binding in plasma (unknown origin) assessed as unbound fraction; type: ADME, cell-free
[10] = Cmax in C57BL/6J mouse at 30 mg/kg, po; type: ADME, organism-based; design: route oral, dose 30 mg/kg; conditions: in vivo
[11] = Lipophilicity, logD of the compound; type: physicochemical; conditions: octanol/water
[12] = biological target: T1, Activin receptor type-1 (Homo sapiens) (UniProt Q04771); assay: Inhibition of ALK2 (unknown origin) at 30 uM
T1 sequence (whole entry): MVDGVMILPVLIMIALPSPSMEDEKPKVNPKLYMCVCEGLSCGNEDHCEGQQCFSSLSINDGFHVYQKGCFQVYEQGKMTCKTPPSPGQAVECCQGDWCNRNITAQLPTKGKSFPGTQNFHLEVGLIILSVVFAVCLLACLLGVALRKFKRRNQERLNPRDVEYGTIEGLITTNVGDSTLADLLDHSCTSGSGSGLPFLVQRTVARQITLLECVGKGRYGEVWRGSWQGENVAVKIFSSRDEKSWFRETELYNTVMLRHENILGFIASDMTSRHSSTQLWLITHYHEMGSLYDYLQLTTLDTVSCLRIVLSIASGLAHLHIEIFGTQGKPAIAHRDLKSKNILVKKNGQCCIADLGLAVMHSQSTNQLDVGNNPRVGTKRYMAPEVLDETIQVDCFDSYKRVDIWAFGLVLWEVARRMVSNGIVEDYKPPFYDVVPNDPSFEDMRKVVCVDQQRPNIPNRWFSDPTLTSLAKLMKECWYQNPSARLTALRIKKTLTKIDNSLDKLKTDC

Chain of Dual specificity tyrosine-phosphorylation-regulated kinase 1B (Homo sapiens) (Q9Y463 whole entry, looked up): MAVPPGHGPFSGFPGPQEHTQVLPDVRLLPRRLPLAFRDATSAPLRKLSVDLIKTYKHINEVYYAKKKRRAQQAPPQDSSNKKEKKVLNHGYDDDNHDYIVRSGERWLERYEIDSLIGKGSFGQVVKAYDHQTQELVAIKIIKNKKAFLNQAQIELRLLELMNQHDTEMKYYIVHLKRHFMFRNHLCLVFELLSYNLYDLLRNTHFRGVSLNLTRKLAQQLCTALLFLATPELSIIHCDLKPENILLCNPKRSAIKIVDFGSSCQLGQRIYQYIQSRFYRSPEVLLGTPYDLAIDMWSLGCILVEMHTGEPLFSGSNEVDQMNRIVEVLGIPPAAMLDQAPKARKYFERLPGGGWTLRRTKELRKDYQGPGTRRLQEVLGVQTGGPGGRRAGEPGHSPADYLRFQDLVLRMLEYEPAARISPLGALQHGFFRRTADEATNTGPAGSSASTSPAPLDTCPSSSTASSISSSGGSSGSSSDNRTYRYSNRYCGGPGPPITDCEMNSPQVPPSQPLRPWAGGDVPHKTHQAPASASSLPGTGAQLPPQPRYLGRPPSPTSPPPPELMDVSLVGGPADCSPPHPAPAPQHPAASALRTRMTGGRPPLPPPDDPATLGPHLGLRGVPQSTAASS
Chain of Dual specificity protein kinase CLK2 (Homo sapiens) (P49760 whole entry, looked up): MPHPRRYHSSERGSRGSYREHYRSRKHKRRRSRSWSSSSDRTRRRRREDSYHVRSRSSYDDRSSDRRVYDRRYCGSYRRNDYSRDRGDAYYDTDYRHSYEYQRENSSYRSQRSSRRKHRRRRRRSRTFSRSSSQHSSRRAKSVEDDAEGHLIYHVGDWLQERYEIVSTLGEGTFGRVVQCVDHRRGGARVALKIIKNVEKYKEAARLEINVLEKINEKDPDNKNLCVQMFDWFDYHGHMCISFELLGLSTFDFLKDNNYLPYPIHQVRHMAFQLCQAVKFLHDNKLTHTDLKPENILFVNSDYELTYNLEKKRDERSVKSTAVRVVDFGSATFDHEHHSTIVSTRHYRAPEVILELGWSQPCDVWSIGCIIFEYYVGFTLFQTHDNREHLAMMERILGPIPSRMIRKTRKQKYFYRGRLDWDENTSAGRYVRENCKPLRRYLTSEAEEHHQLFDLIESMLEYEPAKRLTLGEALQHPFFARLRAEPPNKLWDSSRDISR

Compound	pIC50 [1]	other results
CC1(C)Cc2ccccc2-c2ncnc(N)c21	5.35	
C=C(c1ccc2c(c1)CC(C)(C)c1c(N)ncnc1-2)[C@H]1CCC[C@H](N)C1	7.38	
CC1(C)Cc2cc(OC3CCNCC3)ccc2-c2ncnc(N)c21	6.64	
CC(C)Oc1ccc2c(c1)CC(C)(C)c1c(N)ncnc1-2	6.31	
Nc1ncnc2c1CCc1ccccc1-2	< 4.52	pIC50 [2]: 4.24
Cc1cccc2c1CC(C)(C)c1c(N)ncnc1-2	5.30	
CC1(C)Cc2cc(OC3CCNC3)ccc2-c2ncnc(N)c21 (configuration not stated)	6.74	
COc1ccc2c(c1)CC(C)(C)c1c(N)n[nH]c1-2	< 4.52	
CC1(C)Cc2cc(C3CCNCC3)ccc2-c2ncnc(N)c21	6.09	
CNc1ncnc2c1C1(CCCC1)Cc1ccccc1-2	< 4.52	
CN(C)c1ncnc2c1C1(CCCC1)Cc1ccccc1-2	< 4.52	
C=C(c1ccc2c(c1)CC(C)(C)c1c(N)ncnc1-2)[C@H]1CC[C@H](NC)CC1	7.35	
COc1ccc2c(c1)CC(C)(C)c1c(N)ncnc1-2	6.28	inhibition [3]: Active; inhibition [4]: Active
COC(=O)c1ccc2c(c1)CC(C)(C)c1c(N)ncnc1-2	4.96	
CC1(C)Cc2cc(-c3ccccc3)ccc2-c2ncnc(N)c21	5.82	
Nc1ncnc2c1C1(CCCC1)Cc1ccccc1-2	5.38	
C=C(c1ccc2c(c1)CC(C)(C)c1c(N)ncnc1-2)[C@H]1CC[C@H](N)CC1	7.49	inhibition (Mus musculus): Active; AUC [5]: 2.58 µg·h/mL; CL/F [6]: 11.5 L/h/kg; half-life [7]: 4.59 h; Tmax [8]: 1.17 h; fraction unbound [9]: 0.065; Cmax [10]: 0.61 µg/mL; logD [11]: 1.6; inhibition [12]: inactive
CC1(C)Cc2cc(OCCO)ccc2-c2ncnc(N)c21	5.96	

Compound	pIC50 [1]	other results
CCOc1ccc2c(c1)CC(C)(C)c1c(N)ncnc1-2	6.38	
Cc1cccc2c1-c1ncnc(N)c1C(C)(C)C2	5.33	
C=C(c1ccc2c(c1)CC(C)(C)c1c(N)ncnc1-2)[C@H]1C[C@H](N)C1	7.51	
C=C(c1ccc2c(c1)CC(C)(C)c1c(N)ncnc1-2)[C@H]1CC[C@H](N(C)C)CC1	6.96	
CC1(C)Cc2cc(OC3CCCNCC3)ccc2-c2ncnc(N)c21 (configuration not stated)	6.62	
CC1(C)Cc2cc(C(=O)C3CCNCC3)ccc2-c2ncnc(N)c21	6.52	
c1ccc2c(c1)CC1(CCCC1)c1cncnc1-2	< 4.52	
CC(c1ccc2c(c1)CC(C)(C)c1c(N)ncnc1-2)C1CCNCC1 (racemic)	7.14	
COc1ccc2c(c1)CC(C)(C)c1c-2noc1N	< 4.52	
COc1ccc2c(c1)CC(C)(C)c1c(N)nc(C)nc1-2	< 5.30	
CC(=O)N1CCC(Oc2ccc3c(c2)CC(C)(C)c2c(N)ncnc2-3)CC1	6.12	
Cc1ccc2c(c1)CC(C)(C)c1c(N)ncnc1-2	6.22	
CC1(C)Cc2cc(OCC(=O)O)ccc2-c2ncnc(N)c21	4.96	
C=C(c1ccc2c(c1)CC(C)(C)c1c(N)ncnc1-2)C1CCNCC1	7.68	
C=C(c1ccc2c(c1)CC(C)(C)c1c(N)ncnc1-2)C12CC(C1)C2	6.92	
Oc1ncnc2c1C1(CCCC1)Cc1ccccc1-2	< 4.52	
Cc1ccc2c(c1)-c1ncnc(N)c1C(C)(C)C2	5.55	
